Laboratory results published in ChEMBL document CHEMBL3886245, “Dual modulators of 5HT2A and D3 receptors” (2014).

How the values were obtained:
[1] = biological target: 5-hydroxytryptamine receptor 2A (Homo sapiens, UniProt P28223); assay: (§1) Membranes were incubated in a total volume of 200 ul with a fixed concentration of radioligand (final concentration approximately 0.7 nM [3H]-spiperone for D2, 0.5 nM [3H]-spiperone for D3, and 1.1 nM [3H]-ketanserin for 5-HT2A) and ten concentrations of test compound in ranging between 10 uM-0.1 nM for 1 h at RT. At the end of the incubation, the reaction mixtures were filtered on to unifilter 96-well white microplates with bonded GF/C filters.
[2] = biological target: D(3) dopamine receptor (Homo sapiens, UniProt P35462); assay: as §1
D(3) dopamine receptor, sequence (P35462 whole entry): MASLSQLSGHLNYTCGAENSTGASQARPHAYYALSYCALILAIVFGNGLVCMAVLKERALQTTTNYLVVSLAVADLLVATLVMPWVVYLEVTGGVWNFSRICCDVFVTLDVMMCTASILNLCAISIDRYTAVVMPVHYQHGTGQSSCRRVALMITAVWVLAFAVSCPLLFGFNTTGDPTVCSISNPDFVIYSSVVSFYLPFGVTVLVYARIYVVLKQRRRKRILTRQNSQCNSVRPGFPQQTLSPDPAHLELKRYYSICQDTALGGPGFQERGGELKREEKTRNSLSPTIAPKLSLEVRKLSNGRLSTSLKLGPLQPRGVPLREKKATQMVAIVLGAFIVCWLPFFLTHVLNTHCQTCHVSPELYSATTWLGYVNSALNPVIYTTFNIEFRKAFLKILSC

5-hydroxytryptamine receptor 2A, sequence (P28223 whole entry): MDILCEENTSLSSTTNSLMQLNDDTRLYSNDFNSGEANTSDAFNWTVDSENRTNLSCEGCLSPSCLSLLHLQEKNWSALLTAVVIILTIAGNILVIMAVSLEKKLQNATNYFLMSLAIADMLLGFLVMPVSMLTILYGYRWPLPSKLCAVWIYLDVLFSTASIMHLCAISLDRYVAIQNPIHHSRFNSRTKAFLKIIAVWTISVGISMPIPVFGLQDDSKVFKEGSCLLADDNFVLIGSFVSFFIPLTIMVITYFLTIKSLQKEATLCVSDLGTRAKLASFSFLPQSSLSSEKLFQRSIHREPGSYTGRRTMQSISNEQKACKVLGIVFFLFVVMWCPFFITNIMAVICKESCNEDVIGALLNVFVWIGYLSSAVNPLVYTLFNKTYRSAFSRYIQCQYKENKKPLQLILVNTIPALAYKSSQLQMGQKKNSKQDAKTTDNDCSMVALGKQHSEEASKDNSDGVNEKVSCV

SMILES | Ki [1] | Ki [2]
O=S(=O)(N[C@H]1CC[C@H](CCN2CCC(c3noc4cc(F)ccc34)CC2)CC1)c1cccnc1 | 2.48 nM | 1.95 nM
COCCC(=O)N[C@H]1CC[C@H](CCN2CCC(c3noc4ccc(F)cc34)CC2)CC1 | 37 nM | 3.1 nM
O=C(N[C@H]1CC[C@H](CCN2CCC(c3noc4cc(F)ccc34)CC2)CC1)c1ccc2c(c1)OCO2 | 1.71 nM | 2.75 nM
